# According to patent US7083814B2, “Antiviral substances from plant cuticular and epicuticular material” (Rutgers, The State University of New Jersey, priority 2000, dated 2006):
# Assays:
# [1] = test system: herpes simplex virus type 1 strain HF; experiment: Anti-HSV-1 Cytoprotection Assay (CPE reduction, MTS)
# in vitro = conditions: African green monkey
# Excerpt: Anti-HSV-1 Cytoprotection Assay.
# HIV-1RF = experiment: Anti-HIV-1 Cytoprotection Assay (XTT); conditions: AZT control
Compound,IC50 ([1]; Human alphaherpesvirus 1),"IC50 ([1]; Human alphaherpesvirus 1, Vero)",IC50 (in vitro),positive control result (HIV-1RF)
Nc1nc2c(ncn2COCCO)c(=O)[nH]1 [Acyclovir],2400 nM,2400 nM,> 100000 nM,
Cc1cn([C@H]2C[C@H](N=[N+]=[N-])[C@@H](CO)O2)c(=O)[nH]c1=O [AZT],,,,within the expected parameters
